Assay results: paper PMC12311606, “An efficient brain delivery system co-loaded with multiple components of Salvia miltiorrhiza for synergistic treatment of ischemic stroke” (Materials Today Bio, 2025)

What was measured:
ZO-1 = ZO-1 tension by FRET-based tension probes in bEnd.3 cells; assay type: cell-based; conditions: 15 min treatment, then removal and 15 min observation
Procedure: (§1) 6 × 10^4 bEnd.3 cells were seeded in the donor chamber of 24-well transwell inserts. […] The viability of bEnd.3 cells following borneol treatment was assessed using the Cell Counting Kit-8 (CCK-8) assay. We added 0.9 mL of PBS-based assay medium to blank 24-well culture plates and 0.2 mL of borneol (0, 100, 400 μM) to the apical side of the BBB layers. TEER was measured at 5, 10, and 15 min. Additionally, 100 nm silica nanoparticles and sodium fluorescein at the same concentrations were administered at three time points. […] The intracellular tension of the tight junction protein ZO-1 was evaluated using fluorescence resonance energy transfer (FRET)-based tension probes and cpstFRET analysis, as previously described. bEnd.3 cells were transfected with ZO-1 probes and incubated with 1000 μg/mL geneticin. After treating the cells with borneol for 15 min, the borneol was removed, and observations continued for an additional 15 min. Cells treated with Hanks' solution served as the control group. The cell images were taken with × 63 oil lens on a confocal microscope (SP5; Leica, Wetzlar, Germany). The CFP/FRET ratio was calculated using the equation 1/E = cerulean donor/venus acceptor.

[1] = In vitro drug release in 1 % SDS (dialysis, HPLC); assay type: physicochemical; conditions: release from W/HPDA/L, 1 % SDS pH 6.5–6.8
Procedure: Five compounds were measured by HPLC at 0.5, 1, 2, 4, 8, 12 and 24 h. In order to elucidate the release mechanism of W/HPDA/L, release kinetic models (Ritger-Peppas model) were employed to fit the data available.

[2] = Adsorption kinetic model fitting of the five components on the carrier; assay type: physicochemical; design: k, pseudo-first order: unit not given beside the values
Procedure: Preparation of W/HPDA/L nanoparticles: Briefly, 0.5 mL of TEOS were added over a stirred solution of 2 mL of NH3∙H2O solution in 100 mL of ethanol. The reaction mixture was vigorously stirred at room temperature for 3 h to obtain SiO2 nanoparticles. Then, 1.5 mL of APTES were dropped to the reaction mixture. Finally, SiO2-NH2 nanoparticles were collected by centrifugation at 10000 rpm for 10 min, then washed twice with ethanol and resuspended in ethanol for further use. As for the preparation of W@SiO2 nanoparticles, 1 mL of SiO2-NH2 nanoparticles and 4 mL of water components solution (1 mg RA and 12 mg SAB) were first mixed together. Under stirring for 12 h, the resultant W@SiO2 nanoparticles were acquired by centrifugation (10000 rpm, 10 min) and washed thrice with DI water. The total content of water-soluble in the supernatant (free RA and SAB) were determined by HPLC. W@SiO2 nanoparticles obtained by centrifugation were resuspended with Tris-HCl solution containing dopamine hydrochloride. PDA was prepared according to our precious report. This was followed by the addition of 2 mL of etching solution. Then, through centrifugation (12000 rpm, 5 min) and washing with ultrapure water three times, W/HPDA nanoparticles were acquired for later use. After dissolving 6 mg of lipid-soluble components (1 mg CPT, 2.5 mg TSI and 2.5 mg TSA) in 4 mL of ethanol, it was added to 1 mL of W/HPDA nanoparticles dispersed solution. After 12 h of stirring at room temperature, W/HPDA/L nanoparticles were collected by centrifugation and subsequently dispersed in water for further use. Similarly, HPDA was synthesized as previously described. 13 mg of water-soluble components solution (1 mg RA and 12 mg SAB) and 6 mg of lipid-soluble components (1 mg CPT, 2.5 mg TSI and 2.5 mg TSA) were dissolved in 4 mL PBS containing 0.1 % DMSO and added to 3 mL HPDA aqueous dispersion. The mixture was then stirred at room temperature for 12 h, centrifuged, and washed to obtain HPDA/WL nanoparticles. The total content of lipid-soluble in the supernatant (free CPT, TSI and TSA) were determined by HPLC.
An adsorption kinetic model was used to fit the effect of adsorption time on the adsorption performance of adsorbents, further speculating the mechanism of adsorption. The results of the adsorption kinetics of five components were fitted using the pseudo-first-order and pseudo-second-order model, respectively.

bEnd.3 cells [3] = experiment: Viability of bEnd.3 cells following borneol treatment (CCK-8); assay type: cell-based; conditions: 5 to 500 μmol/l
Procedure: as §1

bEnd.3 cells [4] = experiment: In vitro BBB permeability (bEnd.3 transwell model); assay type: cell-based; conditions: 100 and 400 μmol borneol
Procedure: as §1, with “TEER was measured at 5, 10, and 15 min.” left out, “cpstFRET” left out

Compound	ZO1 tension (CFP/FRET) (ZO-1)	Ritger-Peppas release exponent n [1]	Ritger-Peppas release model coefficient (y = k t^n) [1]	Qe, pseudo-first order [2] [mg/g]	Qe, pseudo-second order [2] [mg/g]	k, pseudo-first order [2]	k, pseudo-second order [2]	Cytotoxic effects on bEnd.3 cells (bEnd.3 cells [3])	Time at which maximum BBB permeability is reached (bEnd.3 cells [4]) [min]
N[C@@H](CCC(=O)O)C(=O)O [Glu, Glutamate, reference compound]	increased and continued to rise even 15 min after Glu removal								
C[C@H]1COC2=C1C(=O)C(=O)c1c2ccc2c1CCCC2(C)C [CPT, cryptotanshinone]		n = 0.39	y = 19.26t^n	4.60	5.06	0.76	0.14		
O=C(/C=C/c1ccc(O)c(O)c1)O[C@H](Cc1ccc(O)c(O)c1)C(=O)O [RA, rosmarinic acid]		n = 0.83	y = 6.28t^n	6.23	7.78	0.29	0.03		
Cc1coc2c1C(=O)C(=O)c1c-2ccc2c(C)cccc12 [TSI, tanshinone I]		n = 0.35	y = 27.02t^n	4.50	5.21	0.53	0.16		
O=C(/C=C/c1ccc(O)c2c1[C@H](C(=O)O[C@H](Cc1ccc(O)c(O)c1)C(=O)O)[C@@H](c1ccc(O)c(O)c1)O2)O[C@H](Cc1ccc(O)c(O)c1)C(=O)O [SAB, salvianolic acid B]		n = 0.78	y = 8.41t^n	18.27	21.95	0.27	0.01		
Cc1coc2c1C(=O)C(=O)c1c-2ccc2c1CCCC2(C)C [TSA, tanshinone IIA]		n = 0.37	y = 24.68t^n	4.14	4.74	0.89	0.21		
CC1(C)C2CCC1(C)C(O)C2 (stereo not shown) [borneol]	increased but decreased after 15 min of borneol removal							no cytotoxic effects	10
